From EP4745135A1 (Gluetacs Therapeutics (Shanghai) Co., Ltd., priority 2023, dated 2025) come the findings set out here.

In assay [1] the test system is Human diffuse large B-cell lymphoma cell line: TMD8. The assay can be described thus: Tumor cell proliferation inhibition (CellTiter-Meiluncell luminescent cell viability assay). The following applies: TMD8, 96 h, read-out: Inhibitory activity (IC50, nM) on tumor cell proliferation, TMD8.
Method: (§1) The tumor cells used herein were cultured in a cell culture medium listed in table 2 at 37°C in an incubator with 5% CO2. Prior to experimentation, all cell lines used were correctly identified by STR profiling, and tested negative for mycoplasma contamination using a mycoplasma detection kit through routine screenings.
(§2) The IC50 values of the compounds of the present disclosure (including the compounds in Table 1 and Examples) were determined using the CellTiter-Meiluncell Luminescent Cell Viability Assay Kit from Dalian Meilun Biotech Co., Ltd. The detailed procedure is as follows: Tumor cells were seeded in 96-well cell culture plates at the densities specified in Table 3. On the following day, the test compounds of the present disclosure were subjected to serial dilution. The dilution can be performed according to one of the following two methods: • (1) The first dilution method: The test compounds of the present disclosure (including the compounds in Table 1 and Examples) were subjected to 5-fold serial dilutions starting from a highest concentration of 2000 µM, resulting in a total of 9 concentrations from high to low (2000, 400, 80, 16, 3.2, 0.64, 0.128, 0.0256, 0.00512 µM). Subsequently, 0.5 µL of the test compound dilution was transferred into the 96-well plate containing the cells, with each well containing 100 µL of cell culture medium. […] Into the 96-well plate, the diluted test compounds and corresponding detection reagents were added, resulting in final test compound concentrations of 500 nM and 10 nM, respectively. The experimental procedure is described below using the diluted 2 µM test compound as an example.
0.5 µL of the aforementioned diluted compound of the present disclosure (including the compounds in Table 1 and Examples) was added to the seeded cells in 100 µL of medium, yielding a final test compound concentration of 10 nM. […] The growth inhibition curves for the compounds of the present disclosure were plotted using Prism GraphPad software, and the IC50 values were calculated therefrom.
The target of assay [2] is T1, IKZF1 (Homo sapiens, UniProt Q13422+Q96SW2).
T1 construct: effects of the compounds of the present disclosure on the expression of target proteins in cells; endogenous in cells; host or cells: human PBMCs (Milecell Biotechnologies)
The assay can be described thus: Western blot, degradation of substrate protein in hPBMCs. The format is cell-based. Particulars: Western blot, 24 hours of compound treatment, compounds tested at 50 nM and 500 nM (concentration for the table not stated). For orientation: A western blot detects proteins with antibodies after separation by electrophoresis.

The target of assay [3] is T2, IKZF2 (Homo sapiens, UniProt Q96SW2+Q9UKS7).
T2 construct: effects of the compounds of the present disclosure on the expression of target proteins in cells; endogenous in cells; host or cells: human PBMCs (Milecell Biotechnologies)
Described as above. Particulars: Western blot, 24 hours of compound treatment, compounds tested at 50 nM and 500 nM (concentration for the table not stated). The format is cell-based.

In assay [4] the target is T3, IKZF3 (Homo sapiens, UniProt Q96SW2+Q9UKT9).
T3 construct: effects of the compounds of the present disclosure on the expression of target proteins in cells; endogenous in cells; host or cells: human PBMCs (Milecell Biotechnologies)
The assay is described as above. The format is cell-based. The following applies: Western blot, 24 hours of compound treatment, compounds tested at 50 nM and 500 nM (concentration for the table not stated).

Assay [5] deals with T4, CK1α (Homo sapiens, UniProt P48729+Q96SW2).
T4 construct: effects of the compounds of the present disclosure on the expression of target proteins in cells; endogenous in cells; host or cells: human PBMCs (Milecell Biotechnologies)
The description is as above. The format is cell-based. Particulars: Western blot, 24 hours of compound treatment, compounds tested at 50 nM and 500 nM (concentration for the table not stated).

For assay [6], the target named is T5, WEE1 (Homo sapiens, UniProt P30291+Q96SW2).
T5 construct: effects of the compounds of the present disclosure on the expression of target proteins in cells; endogenous in cells; host or cells: human PBMCs (Milecell Biotechnologies)
The assay is described as above. The following applies: Western blot, 24 hours of compound treatment, compounds tested at 50 nM and 500 nM (concentration for the table not stated). In kind it is cell-based.

Assay [7] concerns Human multiple myeloma cell (MM.1S). The assay can be described thus: Tumor cell proliferation inhibition (CellTiter-Meiluncell luminescent cell viability assay). The following applies: Homo sapiens, MM1.S, 96 h, read-out: Inhibitory activity (IC50, nM) on tumor cell proliferation, MM.1S.
Method: as §1, §2
(§3) 0.5 µL of the aforementioned diluted compound of the present disclosure (including the compounds in Table 1 and Examples) was added to the seeded cells in 100 µL of medium, yielding a final test compound concentration of 10 nM. After the cells were treated with the compounds of the present disclosure for a specified period, the cell viability assay reagent was added to the culture medium according to the kit's instructions to determine cell viability. […] All controls were treated using the same procedure as the compounds of the present disclosure. The growth inhibition curves for the compounds of the present disclosure were plotted using Prism GraphPad software, and the IC50 values were calculated therefrom.
Assay [8] relates to GSPT1. Description: Western blot, degradation of substrate protein in hPBMCs. Particulars: Western blot, 24 hours of compound treatment, compounds tested at 50 nM and 500 nM (concentration for the table not stated). In kind it is cell-based, Human.
Assay [9] relates to Human multiple myeloma peripheral blood B lymphocyte cell (RPMI-8226). Description: Tumor cell proliferation inhibition (CellTiter-Meiluncell luminescent cell viability assay). Particulars: RPMI-8226, 96 h; for IC50: read-out: Inhibitory activity (IC50, nM) on tumor cell proliferation, RPMI-8226.
Assay [10] addresses T6, human Cereblon WT GST-tagged protein (Homo sapiens, UniProt Q96SW2).
T6 construct: purchased CISBIO 64BDCRBNPEH
The assay can be described thus: CRBN-binding affinity, HTRF (CEREBLON BINDING kit). Particulars: CRBN binding, HTRF, 3 hours at room temperature; read-out: HTRF IC50.

The test system of assay [11] is Human myeloid monocytic leukemia cell (MV-4-11). Description: Tumor cell proliferation inhibition (CellTiter-Meiluncell luminescent cell viability assay). The following applies: MV4-11, 96 h.
In assay [12] the test system is Human mantle cell lymphoma cell line: JEKO-1. Described as above. Particulars: JeKo-1, 96 h, read-out: Inhibitory activity (IC50, nM) on tumor cell proliferation, JEKO-1.
Method: as §1, §2, §3
Assay [13] deals with Human T cell acute lymphoblastic leukemia cell (CCRF-CEM). Described as above. The following applies: 96 h.
Method: as §1, §2, §3
Assay [14] has as its system Human acute myeloid leukemia cell line: Kasumi-1. The description is as above. The following applies: Kasumi 1, 96 h.
Method: as §1, §2, §3
For assay [15], the system named is Human non-small cell lung cancer cell line: NCI-H1975. The description is as above. The following applies: NCI-H1975, 96 h, read-out: Inhibitory activity (IC50, nM) on tumor cell proliferation, H1975.
Method: as §1, §2, §3
Assay [16] relates to Human T lymphocytic leukemia cell line: Jurkat. Described as above. The following applies: 96 h.
The test system of assay [17] is Human breast cancer cell (MCF-7). The assay is described as above. The following applies: MCF7, 96 h.
For assay [18], the system named is Human colon cancer cell line: SW620. The assay is described as above. The following applies: SW-620, 96 h.
Method: as §1, §2, §3
The subject of assay [19] is Human malignant melanoma cell line: A375. Described as above. Particulars: A-375, 96 h.
The test system of assay [20] is Human monocytic leukemia cell line: THP-1. Described as above. The following applies: THP-1, 96 h.
Method: as §1, §2, §3
For assay [21], the system named is Human gastric cancer cell line: MGC803. The description is as above. The following applies: MGC-803, read-out: Inhibitory activity (IC50, nM) on tumor cell proliferation, MGC803.
Method: as §2, §3
[22] abbreviates: read-out: Inhibition Rate at 10 nM (%).
[23] abbreviates: read-out: Inhibition Rate at 500 nM (%).

T5 sequence (P30291 whole entry): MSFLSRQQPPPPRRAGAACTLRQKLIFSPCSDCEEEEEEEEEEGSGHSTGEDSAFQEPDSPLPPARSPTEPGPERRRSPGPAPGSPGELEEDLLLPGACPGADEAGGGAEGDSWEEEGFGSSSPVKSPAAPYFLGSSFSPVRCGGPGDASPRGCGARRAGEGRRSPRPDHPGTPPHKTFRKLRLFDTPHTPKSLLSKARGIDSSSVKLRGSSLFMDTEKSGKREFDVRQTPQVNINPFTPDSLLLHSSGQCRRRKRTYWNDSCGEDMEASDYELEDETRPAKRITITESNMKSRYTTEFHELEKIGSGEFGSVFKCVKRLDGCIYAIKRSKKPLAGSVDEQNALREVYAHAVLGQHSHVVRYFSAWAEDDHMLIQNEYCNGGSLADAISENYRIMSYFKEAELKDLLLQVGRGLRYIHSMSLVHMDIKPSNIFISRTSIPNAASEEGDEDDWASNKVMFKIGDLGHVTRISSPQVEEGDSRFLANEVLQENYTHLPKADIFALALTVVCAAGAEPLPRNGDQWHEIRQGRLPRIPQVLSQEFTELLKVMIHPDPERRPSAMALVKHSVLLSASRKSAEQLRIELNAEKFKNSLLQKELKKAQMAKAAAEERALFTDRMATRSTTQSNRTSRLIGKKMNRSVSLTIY
T5 sequence (Q96SW2 whole entry): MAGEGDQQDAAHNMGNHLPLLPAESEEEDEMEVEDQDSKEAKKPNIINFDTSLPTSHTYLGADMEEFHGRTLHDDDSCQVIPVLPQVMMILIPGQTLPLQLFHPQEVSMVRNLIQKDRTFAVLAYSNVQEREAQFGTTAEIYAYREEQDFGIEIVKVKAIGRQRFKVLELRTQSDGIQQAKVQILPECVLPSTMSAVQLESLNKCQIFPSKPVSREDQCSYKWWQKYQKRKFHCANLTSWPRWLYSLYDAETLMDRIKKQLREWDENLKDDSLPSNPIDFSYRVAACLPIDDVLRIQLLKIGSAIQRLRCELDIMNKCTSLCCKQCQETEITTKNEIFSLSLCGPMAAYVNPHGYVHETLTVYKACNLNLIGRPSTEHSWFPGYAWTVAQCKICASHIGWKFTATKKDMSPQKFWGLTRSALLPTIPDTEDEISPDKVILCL
T5 sequence (Q16531 whole entry partner): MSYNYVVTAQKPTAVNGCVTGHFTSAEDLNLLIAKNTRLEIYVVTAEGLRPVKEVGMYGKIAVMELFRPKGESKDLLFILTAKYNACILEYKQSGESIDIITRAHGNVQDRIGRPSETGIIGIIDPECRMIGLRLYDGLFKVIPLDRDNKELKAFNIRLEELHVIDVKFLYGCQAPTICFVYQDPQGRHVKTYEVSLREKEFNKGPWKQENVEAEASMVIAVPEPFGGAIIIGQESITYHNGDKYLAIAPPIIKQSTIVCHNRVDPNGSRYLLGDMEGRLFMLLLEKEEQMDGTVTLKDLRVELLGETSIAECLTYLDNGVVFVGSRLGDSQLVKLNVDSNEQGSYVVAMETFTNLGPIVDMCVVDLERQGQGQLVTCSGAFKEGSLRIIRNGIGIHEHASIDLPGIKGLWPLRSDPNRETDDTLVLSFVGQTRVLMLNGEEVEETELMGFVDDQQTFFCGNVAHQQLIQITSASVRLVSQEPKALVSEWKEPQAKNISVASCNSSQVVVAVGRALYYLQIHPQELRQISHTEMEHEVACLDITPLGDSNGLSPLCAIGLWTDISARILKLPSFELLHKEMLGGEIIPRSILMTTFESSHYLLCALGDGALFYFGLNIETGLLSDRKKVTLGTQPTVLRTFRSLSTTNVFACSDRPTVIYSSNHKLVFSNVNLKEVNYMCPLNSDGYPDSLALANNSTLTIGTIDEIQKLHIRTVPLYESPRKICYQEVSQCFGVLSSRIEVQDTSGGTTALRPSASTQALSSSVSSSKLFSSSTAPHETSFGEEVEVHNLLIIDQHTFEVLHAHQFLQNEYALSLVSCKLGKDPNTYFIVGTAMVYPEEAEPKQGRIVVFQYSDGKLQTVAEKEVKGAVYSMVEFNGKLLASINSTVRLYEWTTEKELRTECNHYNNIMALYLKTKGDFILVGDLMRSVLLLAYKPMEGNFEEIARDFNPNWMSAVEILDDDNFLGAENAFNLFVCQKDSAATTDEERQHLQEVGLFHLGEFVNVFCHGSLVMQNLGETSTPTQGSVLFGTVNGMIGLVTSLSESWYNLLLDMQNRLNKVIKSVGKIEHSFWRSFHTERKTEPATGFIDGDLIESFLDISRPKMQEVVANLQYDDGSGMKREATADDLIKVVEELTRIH
T6 sequence (Q96SW2 whole entry): as the sequence (Q96SW2 whole entry) above
T4 sequence (P48729 whole entry): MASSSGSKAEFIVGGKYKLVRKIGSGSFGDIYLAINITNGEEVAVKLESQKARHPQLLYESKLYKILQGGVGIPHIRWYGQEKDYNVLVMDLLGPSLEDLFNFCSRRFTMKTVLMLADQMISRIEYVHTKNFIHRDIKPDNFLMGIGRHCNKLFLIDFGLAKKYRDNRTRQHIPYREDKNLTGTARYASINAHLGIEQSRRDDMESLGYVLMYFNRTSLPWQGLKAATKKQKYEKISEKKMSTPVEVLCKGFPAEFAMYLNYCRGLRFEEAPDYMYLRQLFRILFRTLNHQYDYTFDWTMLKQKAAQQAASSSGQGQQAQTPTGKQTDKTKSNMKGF
T4 sequence (Q96SW2 whole entry): as the sequence (Q96SW2 whole entry) above
T4 sequence (Q16531 whole entry partner): as the sequence (Q16531 whole entry partner) above
T3 sequence (Q9UKT9 whole entry): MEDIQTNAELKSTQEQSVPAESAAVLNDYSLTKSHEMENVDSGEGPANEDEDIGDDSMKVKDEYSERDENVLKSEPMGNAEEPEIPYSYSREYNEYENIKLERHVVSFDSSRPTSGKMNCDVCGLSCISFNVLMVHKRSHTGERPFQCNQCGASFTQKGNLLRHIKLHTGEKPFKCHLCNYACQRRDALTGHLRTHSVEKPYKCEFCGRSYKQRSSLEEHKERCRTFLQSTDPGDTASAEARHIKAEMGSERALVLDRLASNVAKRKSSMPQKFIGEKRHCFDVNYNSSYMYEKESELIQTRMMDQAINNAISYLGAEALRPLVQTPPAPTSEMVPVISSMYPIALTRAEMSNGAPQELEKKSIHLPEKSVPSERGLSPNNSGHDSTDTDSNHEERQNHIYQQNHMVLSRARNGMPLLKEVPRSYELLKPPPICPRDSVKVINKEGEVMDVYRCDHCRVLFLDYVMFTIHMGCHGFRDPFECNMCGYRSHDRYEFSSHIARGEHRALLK
T3 sequence (Q96SW2 whole entry): as the sequence (Q96SW2 whole entry) above
T3 sequence (Q16531 whole entry partner): as the sequence (Q16531 whole entry partner) above
T2 sequence (Q9UKS7 whole entry): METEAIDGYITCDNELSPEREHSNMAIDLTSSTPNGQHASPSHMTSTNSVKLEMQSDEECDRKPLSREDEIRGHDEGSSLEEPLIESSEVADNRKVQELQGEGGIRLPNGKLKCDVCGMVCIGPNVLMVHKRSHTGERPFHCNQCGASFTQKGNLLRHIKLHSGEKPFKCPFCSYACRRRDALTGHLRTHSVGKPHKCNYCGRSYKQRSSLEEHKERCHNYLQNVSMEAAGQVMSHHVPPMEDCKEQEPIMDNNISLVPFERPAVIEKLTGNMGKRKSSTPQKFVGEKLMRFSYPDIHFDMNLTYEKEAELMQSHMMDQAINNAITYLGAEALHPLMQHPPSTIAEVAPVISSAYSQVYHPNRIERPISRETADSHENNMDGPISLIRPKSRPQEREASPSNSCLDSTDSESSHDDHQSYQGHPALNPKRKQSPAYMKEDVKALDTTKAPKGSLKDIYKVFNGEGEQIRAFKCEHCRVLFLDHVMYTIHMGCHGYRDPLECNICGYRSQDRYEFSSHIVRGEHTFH
T2 sequence (Q96SW2 whole entry): as the sequence (Q96SW2 whole entry) above
T2 sequence (Q16531 whole entry partner): as the sequence (Q16531 whole entry partner) above
T1 sequence (Q13422 whole entry): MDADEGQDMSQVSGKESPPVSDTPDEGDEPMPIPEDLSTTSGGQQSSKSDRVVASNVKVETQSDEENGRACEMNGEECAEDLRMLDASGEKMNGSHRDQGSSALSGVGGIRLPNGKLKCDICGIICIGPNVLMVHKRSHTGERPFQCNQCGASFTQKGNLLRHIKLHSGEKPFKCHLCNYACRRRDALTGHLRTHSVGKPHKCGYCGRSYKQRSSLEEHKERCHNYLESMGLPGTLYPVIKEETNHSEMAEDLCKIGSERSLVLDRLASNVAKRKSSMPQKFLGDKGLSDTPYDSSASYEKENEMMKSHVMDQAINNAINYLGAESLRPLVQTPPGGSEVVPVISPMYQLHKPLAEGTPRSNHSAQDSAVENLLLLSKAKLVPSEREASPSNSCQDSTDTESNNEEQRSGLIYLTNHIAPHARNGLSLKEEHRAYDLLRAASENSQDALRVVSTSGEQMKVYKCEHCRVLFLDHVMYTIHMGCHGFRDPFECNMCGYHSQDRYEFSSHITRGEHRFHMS
T1 sequence (Q96SW2 whole entry): as the sequence (Q96SW2 whole entry) above
T1 sequence (Q16531 whole entry partner): as the sequence (Q16531 whole entry partner) above

Regarding `O=C1CCC(N2Cc3cc(CN4CCC(c5c[nH]c6cc(F)ccc56)CC4)ccc3C2=S)C(=O)N1` (stereo not shown) [GT-05243, 3-(5-((4-(6-fluoro-1H-indol-3-yl)piperidin-1-yl)methyl)-1-thioxoisoindolin-2-yl)piperidine-2,6-dione], the IC50 was 100 to 500 nM in assay [1], less than 5 nM in [7], 10 to 50 nM in assay [9] and less than 100 nM in [10]. For the same molecule, the “IKZF 1 substrate protein remaining %” value in assay [2] was “B (80%< substrate protein remaining %≤ 100%)”. The “IKZF2 substrate protein remaining %” value in [3] is listed as “A (0% ≤ substrate protein remaining % ≤ 80%)”. Besides, the “IKZF3 substrate protein remaining %” value in assay [4] is on record as “A (0% ≤ substrate protein remaining % ≤ 80%)”. For the same molecule, in [5], the “CK1α substrate protein remaining %” value is recorded as “B (80%< substrate protein remaining %≤ 100%)”. In addition, in [6], the “Wee1 substrate protein remaining %” value is recorded as “A (0% ≤ substrate protein remaining % ≤ 80%)”. The “GSPT1 substrate protein remaining %” value in assay [8] is on record as “A (0% ≤ substrate protein remaining % ≤ 80%)”.
Turning to `Cn1cc(C2=CCN(Cc3ccc4c(c3)CN(C3CCC(=O)NC3=O)C4=S)CC2)c2ccc(F)cc21` (stereo not shown) [GT-05247, 3-(5-((4-(6-fluoro-1-methyl-1H-indol-3-yl)-3,6-dihydropyridin-1(2H)-yl)methyl)-1-thioxoisoindolin-2-yl)piperidine-2,6-dione], the IC50 in assay [1] is 100 to 500 nM; in assay [7] it was less than 5 nM; in assay [9] it was 10 to 50 nM; in assay [10] it was 100 to 500 nM. The “IKZF 1 substrate protein remaining %” value in assay [2] was “B (80%< substrate protein remaining %≤ 100%)”. In assay [3], the “IKZF2 substrate protein remaining %” value is given as “A (0% ≤ substrate protein remaining % ≤ 80%)”. Also, the “IKZF3 substrate protein remaining %” value in [4] was “A (0% ≤ substrate protein remaining % ≤ 80%)”. In [5], the “CK1α substrate protein remaining %” value is “A (0% ≤ substrate protein remaining % ≤ 80%)”. The “Wee1 substrate protein remaining %” value in assay [6] was “A (0% ≤ substrate protein remaining % ≤ 80%)”. Besides, the “GSPT1 substrate protein remaining %” value in assay [8] is on record as “A (0% ≤ substrate protein remaining % ≤ 80%)”.
For `Nc1cccc2c1C(=O)N(C1CCC(=O)NC1=O)C2=O` (stereo not shown) [pomalidomide, reference compound], the IC50 was more than 10000 nM in [1]; 5000 to 10000 nM in [12]; 500 to 1000 nM in assay [7]; 1000 to 5000 nM in assay [9]; more than 10000 nM in [15]; more than 10000 nM in [16] (read-out: Inhibitory activity (IC50, nM) on tumor cell proliferation, Jurkat). Also, the IC50 is more than 10000 nM in assay [17] (read-out: Inhibitory activity (IC50, nM) on tumor cell proliferation, MCF7) and more than 10000 nM in [21]. For the same molecule, the inhibition at 0.01 µM in assay [11] (setting [22]) is 18 to 25%; in [13] (setting [22]) it was 0 to 5%; in assay [14] (setting [22]), -10 to -5%; in assay [9] (setting [22]), 10 to 20%; in assay [16] (setting [22]), 10 to 20%; in assay [17] (setting [22]) it was 5 to 10%. The inhibition at 0.01 µM in assay [18] (setting [22]) was 20 to 30%; in assay [19] (setting [22]), 10 to 20%; in assay [20] (setting [22]), 10 to 20%. Moreover, the inhibition at 0.5 µM in assay [11] (setting [23]) is 10 to 18%; in [13] (setting [23]), 0 to 5%; in assay [14] (setting [23]), -5 to 0%; in [9] (setting [23]) it was 30 to 40%; in assay [16] (setting [23]), 10 to 20%; in [17] (setting [23]) it was 0 to 5%. In addition, the inhibition at 0.5 µM in assay [18] (setting [23]) fell in the range of 20 to 30%; in assay [19] (setting [23]), 5 to 10%; in assay [20] (setting [23]), 10 to 20%.

The inhibition is the relative decrease from the control value, in per cent.
